Experiments:
[1] = test system: PGE2 production in human PBMC; assay: LPS-induced PGE2 production in human PBMC (EIA); format: cell-based; conditions: LPS 10 ng/mL, 72 hrs
Experimental: Blood was recruited from healthy donors at St. Olavs Hospital HF, the Bloodbank (project approved by Regional Ethical Committee of Mid-Norway; #2016/553). Peripheral blood mononuclear cells (PBMC) were isolated using SepMate™ separation tubes with LymphoPrep density gradient medium according to the STEMCELL Technology recommendations. For experiments, 1×10^6 cells/well/1 mL RPMI medium supplemented with 5% FBS, 0.3 mg/ml glutamine and 0.1 mg/ml gentamicin with- or without inhibitor. Treatments were added 2 hours prior to the addition of lipopolysaccharides as a potent inducer of inflammation (LPS from E. coli 026:B6 γ-irradiated, Sigma-Aldrich, #L2654). Following treatment (72 hrs., 37° C., 5% CO2), the cell suspensions were centrifuged to isolate the supernatant from the cell fraction. Samples were stored at −80° C. until analysis.
PBMC supernatants were analyzed by enzyme-linked immunosorbent assay (EIA) for PGE2 (Cayman #514010), according to the manufacturers protocols. PBMC supernatants were assayed at dilutions of 1:100, except supernatants from non-LPS treated PBMC that were assayed undiluted in all assays. Supernatants were hybridized over-night incubation, enzymatic conversion of substrate were read at OD420 nm. Data were processed using a 4-parameter logistic fit model.

[2] = test system: α-SMA mRNA in RMC (rat mesangial cells); assay: TGF-β1 induced α-SMA mRNA expression in RMC mesangial cell line (qRT-PCR); format: cell-based; conditions: 5 ng/ml TGF-β1 for 24 h, not significant
Experimental: (§1) RMC (rat mesangial cells, ATCC® CRL-2573™) were maintained in DMEM with 4500 mg/L glucose (Sigma), 15% FBS, L-glutamine, and 0.4 mg/ml G418. For experiments, 3×10^5 cells/well were seeded in 6-well plates. After five days, post-confluent cells were serum starved for 24 h. They were then pre-incubated with inhibitors for 90 min, before they were treated with 5 ng/ml TGF-β1 for 24 h.
(§2) Total RNA was isolated using the RNeasy Mini Kit (Qiagen). cDNA synthesis was performed with 1 μg total RNA in 20 μl reaction of QuantiTect Reverse Transcription Kit (Qiagen). After synthesis, cDNA was diluted 1:6 with RNase-free water. qRT-PCR was performed with LightCycler 480 SYBR Green I Master (Roche), and the qRT-PCR analyses were carried out using the Lightcycler 96 system (Roche).

[3] = test system: α-SMA mRNA in NRK-49F cells; assay: TGF-β1 induced α-SMA mRNA expression in NRK-49F cells (qRT-PCR); format: cell-based, rat; conditions: 5 μM, 10 ng/ml TGF-β1 for 24 h
Experimental: NRK-49F (normal rat kidney fibroblasts, ATCC® CRL-1570™) were maintained in DMEM with 4500 mg/L glucose, 5% FBS, L-glutamine, and gentamicin. For experiments, 3×10^5 cells/well were seeded in 6-well plates. After three days, post-confluent cells were serum starved for 24 h. They were then pre-incubated with inhibitors for 90 min, before they were treated with 10 ng/ml TGF-β1 for 24 h (mRNA-expression).
as §2

[4] = test system: Ptgs2 mRNA in MRC-5 cells; assay: TGF-β1 induced Ptgs2 mRNA expression in MRC-5 cells (qRT-PCR); format: cell-based, human; conditions: 5 μM, 2 ng/ml TGF-β1 for 24 h
Experimental: MRC-5 (human lung fibroblast, ATCC® CCL-171™) were maintained in MEM with 10% FBS, L-glutamine, and gentamicin. For experiments, 1×10^5 cells/well were seeded in 6-well plates. After two days, pre-confluent cells were serum starved for 24 h. They were then pre-incubated with inhibitors for 90 min, before they were treated with 2 ng/ml TGF-β1 for 24 h.
as §2

[5] = test system: PGE2 in rat renal mesangial cells; assay: IL-1 induced PGE2 in rat renal mesangial cells (EIA); format: cell-based; conditions: Mesangial cell, IL-1 stimulation
Experimental: Cell culture of rat renal mesangial cells were isolated, characterized and cultured as previously described (Pfeilschifter eteil., e1984).84ERLINK “htmesangial cells in 24-well plates were pretreated for 90library.wiley.com/doi/full/10.1111/Compound A before stimulation in a volume of 0.5 mL with IL-1eforenM, Cell Concept GmbH) to induce PGE2Hn in a volume of 0.5 mL with ILcom/doi/full^0C, 5% CO2), the cell suspensions were centrifuged to isolate the supernatant from the cell fraction. Samples were stored at −80° C. until analysis.
Rat mesangial cell supernatants were analyzed by EIA for PGE2 (Assay Designs, BIOTREND Chemikalien GmbH), according to the manufacturers protocols. Data were calculated as pg of PGE2 per 1.3×10^5 cells which was the cell number per well.

[6] = test system: Ptgs2 mRNA in RMC (rat mesangial cells); assay: TGF-β1 induced Ptgs2 mRNA expression in RMC (qRT-PCR); format: cell-based; conditions: 5 μM, 5 ng/ml TGF-β1 for 24 h
Experimental: as §1, §2

[7] = read-out: estimated IC50 of PGE2 inhibition

IC50 [5, 7]: 900 nM
Compound: CCCCCCCOc1ccc(OCC(=O)c2nc(C(=O)OC)cs2)cc1 [Compound A]
PGE2 production ([1]; 10 μM (highest dose), LPS alone 18185+/−11200 pg/mL): 510 ± 406 pg/mL
IC50 [1, 7]: 440 nM
reduction of α-SMA mRNA expression [2]: around 35%
inhibition of TGF-β1 induced expression of α-SMA mRNA [3]: 50%
Ptgs2 expression [4]: reduced Ptgs2 expression
inhibition at 10 µM ([5]; 10 μM): 65%
Ptgs2 mRNA levels [6]: seem to reduce Ptgs2 mRNA levels

From patent US20210361628A1, “2-OXOTHIAZOLE COMPOSITIONS FOR TREATMENT OF FIBROTIC DISEASE” (Avexxin AS, priority 2018, published 2021)
